Results published in ChEMBL document CHEMBL3885881, “DrugMatrix”.

Tests used:
Rattus norvegicus [1] = organism: Rattus norvegicus; experiment: DrugMatrix - Regimen: Daily Repeat; format: toxicity, organism-based, Sprague-Dawley; set-up: regimen Daily Repeat, gender Male, age 6-8 weeks; conditions: in vivo, po, 60 mg/kg, route oral GAVAGE, dose level High, vehicle 100 % WATER
Rattus norvegicus [2] = organism: Rattus norvegicus; format: toxicity, organism-based, Sprague-Dawley; conditions: in vivo, po, 60 mg/kg, 24 h, route oral GAVAGE, dose level High, time 1 day, vehicle 100 % WATER
Description: DrugMatrix - Regimen: Single

[3] = […], tissue Plasma, time 14 day

Nc1ccc(O)c(N)c1 [2,4-DIAMINOPHENOL]
URIC ACID (Rattus norvegicus [1]; 120 h, tissue Plasma, time 5 day): 0.67 mg/dL
ABSOLUTE BASOPHIL (Rattus norvegicus [1]; […], tissue Blood, time 14 day): 0 CELLS/uL
ABSOLUTE EOSINOPHIL (Rattus norvegicus [1]; […], tissue Blood, time 14 day): 124 CELLS/uL
ABSOLUTE LYMPHOCYTE (Rattus norvegicus [1]; […], tissue Blood, time 14 day): 13347.2 CELLS/uL
ABSOLUTE MONOCYTE (Rattus norvegicus [1]; […], tissue Blood, time 14 day): 291 CELLS/uL
ABSOLUTE SEGMENTED NEUTROPHIL (Rattus norvegicus [1]; […], tissue Blood, time 14 day): 2297.8 CELLS/uL
BASOPHIL (Rattus norvegicus [1]; […], tissue Blood, time 14 day): 0%
EOSINOPHIL (Rattus norvegicus [1]; […], tissue Blood, time 14 day): 0.8%
ERYTHROCYTE COUNT (Rattus norvegicus [1]; […], tissue Blood, time 14 day): 5.92 x10E6/uL
HEMATOCRIT (Rattus norvegicus [1]; […], tissue Blood, time 14 day): 34.56%
HEMOGLOBIN (Rattus norvegicus [1]; […], tissue Blood, time 14 day): 13 G/DL
LEUKOCYTE COUNT (Rattus norvegicus [1]; […], tissue Blood, time 14 day): 16.06 x10E3/uL
LYMPHOCYTE (Rattus norvegicus [1]; […], tissue Blood, time 14 day): 83%
MEAN CORPUSCULAR HEMOGLOBIN (Rattus norvegicus [1]; […], tissue Blood, time 14 day): 22.04 pg
MEAN CORPUSCULAR HEMOGLOBIN CONCENTRATION (Rattus norvegicus [1]; […], tissue Blood, time 14 day): 37.6 G/DL
MEAN CORPUSCULAR VOLUME (Rattus norvegicus [1]; […], tissue Blood, time 14 day): 58.5 fL
MONOCYTE (Rattus norvegicus [1]; […], tissue Blood, time 14 day): 1.8%
NEUTROPHIL (Rattus norvegicus [1]; […], tissue Blood, time 14 day): 14.4%
NUCLEATED RED BLOOD CELLS (Rattus norvegicus [1]; […], tissue Blood, time 14 day): 0 /100WBC
PLATELET COUNT (Rattus norvegicus [1]; […], tissue Blood, time 14 day): 944.4 x10E3/uL
ALANINE AMINOTRANSFERASE (Rattus norvegicus [1]; [3]): 40.4 u/L
ALBUMIN (Rattus norvegicus [1]; [3]): 4.32 G/DL
ALKALINE PHOSPHATASE (Rattus norvegicus [1]; [3]): 271.4 u/L
ASPARTATE AMINOTRANSFERASE (Rattus norvegicus [1]; [3]): 76.6 u/L
BLOOD UREA NITROGEN (Rattus norvegicus [1]; [3]): 13.6 mg/dL
CARBON DIOXIDE (Rattus norvegicus [1]; [3]): 30.4 mmol/L
CHLORIDE (Rattus norvegicus [1]; [3]): 101.8 MEQ/L
CHOLESTEROL (Rattus norvegicus [1]; [3]): 67.4 mg/dL
CREATININE (Rattus norvegicus [1]; [3]): 0.15 mg/dL
GLUCOSE (Rattus norvegicus [1]; [3]): 150 mg/dL
LACTATE DEHYDROGENASE (Rattus norvegicus [1]; [3]): 271.8 u/L
LIPASE (Rattus norvegicus [1]; [3]): 7.8 u/L
PHOSPHORUS (Rattus norvegicus [1]; [3]): 13.62 mg/dL
POTASSIUM (Rattus norvegicus [1]; [3]): 6.71 MEQ/L
SODIUM (Rattus norvegicus [1]; [3]): 145.8 MEQ/L
TOTAL BILIRUBIN (Rattus norvegicus [1]; [3]): 0.14 mg/dL
TOTAL PROTEIN (Rattus norvegicus [1]; [3]): 6.06 G/DL
URIC ACID (Rattus norvegicus [1]; [3]): 1.14 mg/dL
ABSOLUTE EOSINOPHIL (Rattus norvegicus [2]; tissue Blood): 80.67 CELLS/uL
ABSOLUTE LYMPHOCYTE (Rattus norvegicus [2]; tissue Blood): 10585.67 CELLS/uL
ABSOLUTE MONOCYTE (Rattus norvegicus [2]; tissue Blood): 630.67 CELLS/uL
ABSOLUTE SEGMENTED NEUTROPHIL (Rattus norvegicus [2]; tissue Blood): 1169.67 CELLS/uL
BASOPHIL (Rattus norvegicus [2]; tissue Blood): 0%
EOSINOPHIL (Rattus norvegicus [2]; tissue Blood): 0.67%
ERYTHROCYTE COUNT (Rattus norvegicus [2]; tissue Blood): 4.98 x10E6/uL
HEMATOCRIT (Rattus norvegicus [2]; tissue Blood): 31.37%
HEMOGLOBIN (Rattus norvegicus [2]; tissue Blood): 11.7 G/DL
LEUKOCYTE COUNT (Rattus norvegicus [2]; tissue Blood): 12.47 x10E3/uL
LYMPHOCYTE (Rattus norvegicus [2]; tissue Blood): 85%
MEAN CORPUSCULAR HEMOGLOBIN (Rattus norvegicus [2]; tissue Blood): 23.63 pg
MEAN CORPUSCULAR HEMOGLOBIN CONCENTRATION (Rattus norvegicus [2]; tissue Blood): 37.37 G/DL
MEAN CORPUSCULAR VOLUME (Rattus norvegicus [2]; tissue Blood): 63.17 fL
MONOCYTE (Rattus norvegicus [2]; tissue Blood): 5%
NEUTROPHIL (Rattus norvegicus [2]; tissue Blood): 9.33%
NUCLEATED RED BLOOD CELLS (Rattus norvegicus [2]; tissue Blood): 0 /100WBC
PLATELET COUNT (Rattus norvegicus [2]; tissue Blood): 963 x10E3/uL
ALANINE AMINOTRANSFERASE (Rattus norvegicus [2]; tissue Plasma): 60.67 u/L
ALBUMIN (Rattus norvegicus [2]; tissue Plasma): 4.43 G/DL
ALKALINE PHOSPHATASE (Rattus norvegicus [2]; tissue Plasma): 366.33 u/L
ASPARTATE AMINOTRANSFERASE (Rattus norvegicus [2]; tissue Plasma): 78.33 u/L
BLOOD UREA NITROGEN (Rattus norvegicus [2]; tissue Plasma): 12 mg/dL
CARBON DIOXIDE (Rattus norvegicus [2]; tissue Plasma): 27 mmol/L
CHLORIDE (Rattus norvegicus [2]; tissue Plasma): 103.33 MEQ/L
CHOLESTEROL (Rattus norvegicus [2]; tissue Plasma): 77.33 mg/dL
CREATININE (Rattus norvegicus [2]; tissue Plasma): 0.13 mg/dL
GLUCOSE (Rattus norvegicus [2]; tissue Plasma): 149 mg/dL
LACTATE DEHYDROGENASE (Rattus norvegicus [2]; tissue Plasma): 159 u/L
LIPASE (Rattus norvegicus [2]; tissue Plasma): 8 u/L
PHOSPHORUS (Rattus norvegicus [2]; tissue Plasma): 12.77 mg/dL
POTASSIUM (Rattus norvegicus [2]; tissue Plasma): 6.85 MEQ/L
SODIUM (Rattus norvegicus [2]; tissue Plasma): 145.33 MEQ/L
TOTAL BILIRUBIN (Rattus norvegicus [2]; tissue Plasma): 0.1 mg/dL
TOTAL PROTEIN (Rattus norvegicus [2]; tissue Plasma): 6 G/DL
URIC ACID (Rattus norvegicus [2]; tissue Plasma): 1.37 mg/dL
